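Cells were grown in 96-well plates and exposed to each compound for 48 hours at five concentrations; endpoints were interpolated linearly between bracketing concentrations, or set to the highest concentration if not reached. GI50 marks 50% less growth.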 Activity calls are given as the source filed them. No stated cut-off is given here; in the data, active = GI50 up to about 1.1 µM and inactive = higher.
Columns and labels:
Assay in all cases: growth of human tumour cells (NCI), 48 h
[1] = test system: 786-0
[2] = test system: A498
[3] = test system: A549
[4] = test system: ACHN
[5] = test system: BT-549
[6] = test system: CAKI-1
[7] = test system: CCRF-CEM
[8] = test system: COLO 205
[9] = test system: DU-145
[10] = test system: EKVX
[11] = test system: HCC 2998
[12] = test system: HCT-116
[13] = test system: HCT-15
[14] = test system: HL-60
[15] = test system: HOP-92
[16] = test system: HT-29
[17] = test system: Hs-578T
[18] = test system: IGROV-1
[19] = test system: K562
[20] = test system: KM12
[21] = test system: LOX IMVI
[22] = test system: M14
[23] = test system: MCF7
[24] = test system: MDA-MB-231
[25] = test system: MDA-MB-435
[26] = test system: MDA-N
[27] = test system: MOLT-4
[28] = test system: Malme-3M
[29] = test system: NCI-H226
[30] = test system: NCI-H23
[31] = test system: NCI-H460
[32] = test system: NCI-H522
[33] = test system: NCI/ADR-RES
[34] = test system: OVCAR-3
[35] = test system: OVCAR-4
[36] = test system: OVCAR-5
[37] = test system: OVCAR-8
[38] = test system: PC-3
[39] = test system: RPMI-8226
[40] = test system: SF-268
[41] = test system: SF-295
[42] = test system: SF-539
[43] = test system: SK-MEL-28
[44] = test system: SK-MEL-2
[45] = test system: SK-MEL-5
[46] = test system: SK-OV-3
[47] = test system: SN12C
[48] = test system: SNB-19
[49] = test system: SNB-75
[50] = test system: SW-620
[51] = test system: T47D
[52] = test system: TK-10
[53] = test system: U-251
[54] = test system: UACC-257
[55] = test system: UACC-62
[56] = test system: UO-31
[57] = test system: HOP-62
[58] = test system: RXF 393
[59] = test system: SR

Measured: GI50

CC(=O)c1c(O)c(C)c(O)c(Cc2c(O)c3c(c(C(=O)/C=C/c4ccccc4)c2O)OC(C)(C)C=C3)c1O [ROTTLERIN]
inactive: [1] 2.85 µM | [2] 1.95 µM | [4] 3.51 µM | [5] 2.51 µM | [6] 2.91 µM | [7] 2.99 µM | [8] 1.68 µM | [9] 3.49 µM | [10] 2.68 µM | [11] 2.23 µM | [12] 1.82 µM | [14] 2.64 µM | [15] 1.62 µM | [16] 3.24 µM | [17] 3.65 µM | [18] 3.1 µM | [20] 2.81 µM | [21] 2.86 µM | [22] 3.23 µM | [23] 3.13 µM | [24] 2.08 µM | [25] 2.74 µM | [26] 3.14 µM | [27] 1.89 µM | [28] 2.84 µM | [29] 3.45 µM | [30] 2.37 µM | [31] 2.94 µM | [32] 1.95 µM | [33] 2.53 µM | [34] 2.7 µM | [35] 2.79 µM | [36] 3.56 µM | [37] 3.08 µM | [39] 1.79 µM | [40] 3.61 µM | [41] 2.85 µM | [42] 2.99 µM | [43] 2.86 µM | [44] 1.34 µM | [45] 1.87 µM | [46] 4.04 µM | [47] 2.21 µM | [48] 2.34 µM | [49] 1.27 µM | [50] 3.19 µM | [51] 1.85 µM | [52] 2.98 µM | [53] 2.31 µM | [54] 2.21 µM | [55] 2.95 µM | [56] 2.26 µM
2.52 µM: [13]
active: [3] 0.986 µM | [19] 1.07 µM | [38] 1.11 µM

COc1ccc(N2C(=O)c3c4c(c5c([nH]c6ncccc65)c3C2=O)CCC(C(C)(C)C)C4)cc1 (stereo not drawn)
> 100 µM: [13]
inactive: [1] 35.6 µM | [3] > 100 µM | [4] 40.6 µM | [5] 84.9 µM | [7] > 100 µM | [8] > 100 µM | [9] > 100 µM | [10] > 100 µM | [11] > 100 µM | [12] > 100 µM | [14] > 100 µM | [57] 38.6 µM | [16] > 100 µM | [17] 28.8 µM | [18] > 100 µM | [19] > 10 µM | [20] > 100 µM | [22] > 100 µM | [23] > 100 µM | [24] > 100 µM | [25] > 100 µM | [26] > 100 µM | [27] > 10 µM | [29] > 100 µM | [30] 67 µM | [31] > 100 µM | [32] 67.3 µM | [33] > 100 µM | [34] > 100 µM | [35] > 100 µM | [37] > 100 µM | [38] > 100 µM | [39] > 100 µM | [58] 34.6 µM | [40] 72.6 µM | [41] 45.6 µM | [42] 41.9 µM | [43] > 100 µM | [45] > 100 µM | [46] 40.6 µM | [47] > 100 µM | [48] 65.3 µM | [49] 16.8 µM | [59] > 100 µM | [50] > 100 µM | [51] > 100 µM | [52] 66.4 µM | [53] 31 µM | [54] > 100 µM | [55] 30.3 µM | [56] > 100 µM

From ChEMBL document CHEMBL1201862, “PubChem BioAssay data set” (2004)
